Data reported in US4110327A, “2,3 Diketo-piperazinocarbonylamino alkanoic acids and derivatives” (Toyama Chemical Co., Ltd., priority 1974, dated 1978).
≈ marks a conversion by molar mass, not a printed value.

How the values were obtained:
Experiment in all cases: MIC against standard strain, plate method
Assay type in all cases: cell-based
Proteus vulgaris 3027 = conditions: Proteus vulgaris 3027, standard strain; unit assumed
Method: (§1) The minimum inhibitory concentrations (MIC) was determined by the plate method disclosed in "Chemotherapy" (Japan), Vol. 16, (1968), pages 98 - 99. The culture medium used was a Heart infusion agar (pH 7.4). The number of the cells per plate used in the inoculum as 10^4 (10^6 cells/ml).

Escherichia coli NIHJ = conditions: unit assumed
Method: as §1

[1] = test system: Staphylococcus aureus 209p; conditions: unit assumed
Method: as §1

Klebsiella pneumoniae = conditions: unit assumed
Method: as §1

[2] = test system: Pseudomonas aeruginosa I.F.O.; conditions: unit assumed
Method: as §1

Row | Structure (SMILES) | MIC (Proteus vulgaris 3027) | MIC (Escherichia coli NIHJ) | MIC [1] | MIC (Klebsiella pneumoniae) | MIC [2]
1 | CC1(C)S[C@@H]2[C@H](NC(=O)[C@H](NC(=O)N3CCN(CCO)C(=O)C3)c3ccccc3)C(=O)N2[C@H]1C(=O)O [compound 24] | 25 µg/mL (≈ 48.1 µM) | < 1.57 µg/mL | 3.13 µg/mL (≈ 6.02 µM) | 50 µg/mL (≈ 96.2 µM) | 50 µg/mL (≈ 96.2 µM)
2 | CC1(C)S[C@@H]2[C@H](NC(=O)[C@H](NC(=O)N3CCN(c4ccccc4)C(=O)C3=O)c3ccccc3)C(=O)N2[C@H]1C(=O)O (single isomer, unassigned) [compound 43] | < 1.57 µg/mL | < 1.57 µg/mL | < 1.57 µg/mL | 1.57 µg/mL (≈ 2.78 µM) | 6.25 µg/mL (≈ 11.1 µM)
3 | CN1CCN(C(=O)NC(C(=O)NC2C(=O)N3C(C(=O)O)=C(CSc4nncs4)CSC23)c2ccccc2)C(=O)C1=O (single isomer, unassigned) [compound 64] | 3.13 µg/mL (≈ 5.07 µM) | < 0.1 µg/mL | 0.79 µg/mL (≈ 1.28 µM) | 1.57 µg/mL (≈ 2.54 µM) | 25 µg/mL (≈ 40.5 µM)
4 | CCN1CC(C)N(C(=O)NC(C(=O)NC2C(=O)N3C(C(=O)O)=C(CSc4nnnn4C)CSC23)c2ccccc2)C(=O)C1=O (stereo not shown) [compound 66] | < 1.57 µg/mL | < 0.79 µg/mL | < 0.79 µg/mL | 0.79 µg/mL (≈ 1.23 µM) | 25 µg/mL (≈ 38.8 µM)
5 | CN1CCN(C(=O)N[C@@H](C(=O)N[C@@H]2C(=O)N3[C@@H]2SC(C)(C)[C@@H]3C(=O)OCCN2CCCCC2)c2ccccc2)C(=O)C1=O (single isomer, unassigned) [compound 53] | 0.79 µg/mL (≈ 1.29 µM) | < 0.4 µg/mL | 0.79 µg/mL (≈ 1.29 µM) | 25 µg/mL (≈ 40.7 µM) | 6.25 µg/mL (≈ 10.2 µM)
6 | CC1(C)S[C@@H]2[C@H](NC(=O)[C@H](NC(=O)N3CC(=O)N(C(=O)c4ccccc4)CC3=O)c3ccccc3)C(=O)N2[C@H]1C(=O)O [compound 34] | 50 µg/mL (≈ 84.2 µM) | 3.13 µg/mL (≈ 5.27 µM) | 1.57 µg/mL (≈ 2.64 µM) | 50 µg/mL (≈ 84.2 µM) | 100 µg/mL (≈ 168 µM)
7 | CC(C)CCN1CCN(C(=O)N[C@@H](C(=O)N[C@@H]2C(=O)N3[C@@H]2SC(C)(C)[C@@H]3C(=O)O)c2ccccc2)CC1=O [compound 21] | 3.13 µg/mL (≈ 5.74 µM) | 1.57 µg/mL (≈ 2.88 µM) | < 0.79 µg/mL | 25 µg/mL (≈ 45.8 µM) | 25 µg/mL (≈ 45.8 µM)
8 | CCN1CCN(C(=O)NC(C(=O)NC2C(=O)N3C(C(=O)O)=C(CSc4cccc[n+]4[O-])CSC23)c2ccccc2)C(=O)C1=O (single isomer, unassigned) [compound 70] | < 0.79 µg/mL | 1.57 µg/mL (≈ 2.45 µM) | < 0.79 µg/mL | 1.56 µg/mL (≈ 2.43 µM) | 100 µg/mL (≈ 156 µM)
9 | Cc1ccc(C(=O)N2CCN(C(=O)N[C@@H](C(=O)N[C@@H]3C(=O)N4[C@@H]3SC(C)(C)[C@@H]4C(=O)O)c3ccccc3)C(=O)C2)cc1 [compound 9] | 3.13 µg/mL (≈ 5.27 µM) | 3.13 µg/mL (≈ 5.27 µM) | < 1.57 µg/mL | 3.13 µg/mL (≈ 5.27 µM) | 100 µg/mL (≈ 168 µM)
10 | C/C=C/CN1CCN(C(=O)N[C@@H](C(=O)N[C@@H]2C(=O)N3[C@@H]2SC(C)(C)[C@@H]3C(=O)O)c2ccccc2)CC1=O [compound 28] | 3.13 µg/mL (≈ 5.91 µM) | < 1.57 µg/mL | < 1.57 µg/mL | 25 µg/mL (≈ 47.2 µM) | 25 µg/mL (≈ 47.2 µM)
11 | CC1(C)S[C@@H]2[C@H](NC(=O)[C@H](NC(=O)N3CC(=O)N(Cc4ccccc4)CC3=O)c3ccccc3)C(=O)N2[C@H]1C(=O)O [compound 35] | 25 µg/mL (≈ 43.1 µM) | 6.25 µg/mL (≈ 10.8 µM) | 1.57 µg/mL (≈ 2.71 µM) | 25 µg/mL (≈ 43.1 µM) | 100 µg/mL (≈ 173 µM)
12 | CC(=O)N1CCN(C(=O)N[C@@H](C(=O)N[C@@H]2C(=O)N3[C@@H]2SC(C)(C)[C@@H]3C(=O)O)c2ccccc2)C(=O)C1C (stereo partly shown) [compound 4] | 3.13 µg/mL (≈ 5.89 µM) | < 1.57 µg/mL | < 1.57 µg/mL | 12.5 µg/mL (≈ 23.5 µM) | 25 µg/mL (≈ 47 µM)
13 | CN1CCN(C(=O)NC(C(=O)N[C@@H]2C(=O)N3[C@@H]2SC(C)(C)[C@@H]3C(=O)O)c2cccs2)C(=O)C1=O (stereo partly shown) [compound 58] | 3.13 µg/mL (≈ 6.14 µM) | < 1.57 µg/mL | < 1.57 µg/mL | 25 µg/mL (≈ 49.1 µM) | 12.5 µg/mL (≈ 24.5 µM)
14 | CCOC(=O)N1CCN(C(=O)N[C@@H](C(=O)N[C@@H]2C(=O)N3[C@@H]2SC(C)(C)[C@@H]3C(=O)O)c2ccccc2)C(=O)C1 [compound 12] | 12.5 µg/mL (≈ 22.8 µM) | 3.13 µg/mL (≈ 5.72 µM) | < 1.57 µg/mL | 6.25 µg/mL (≈ 11.4 µM) | 50 µg/mL (≈ 91.3 µM)
